In ChEMBL document CHEMBL4052776, “Discovery of 3-morpholino-imidazole[1,5-a]pyrazine BTK inhibitors for rheumatoid arthritis” (Bioorg Med Chem Lett, 2017):

Key:
Homo sapiens [1] = species: Homo sapiens; experiment: Selectivity ratio of IC50 for BMX (unknown origin) to IC50 for BTK (unknown origin)
Homo sapiens [2] = species: Homo sapiens; experiment: Selectivity ratio of IC50 for CSK (unknown origin) to IC50 for BTK (unknown origin)
Homo sapiens [3] = species: Homo sapiens; experiment: Selectivity ratio of IC50 for PTK6 (unknown origin) to IC50 for BTK (unknown origin)
[4] = target: Tyrosine-protein kinase Lyn (Homo sapiens, UniProt P07948); experiment: Inhibition of LYNB (unknown origin)
[5] = target: Tyrosine-protein kinase CSK (Homo sapiens, UniProt P41240); experiment: Inhibition of CSK (unknown origin)
Homo sapiens [6] = species: Homo sapiens; experiment: Selectivity ratio of IC50 for TXK (unknown origin) to IC50 for BTK (unknown origin)
[7] = target: Voltage-gated inwardly rectifying potassium channel KCNH2 (Homo sapiens, UniProt Q12809); experiment: Inhibition of human ERG by [35S]-MK499 displacement or iKr channel assay
[8] = target: T1, Tyrosine-protein kinase TXK (Homo sapiens, UniProt P42681); experiment: Inhibition of TXK (unknown origin)
T1 sequence (P42681 whole entry): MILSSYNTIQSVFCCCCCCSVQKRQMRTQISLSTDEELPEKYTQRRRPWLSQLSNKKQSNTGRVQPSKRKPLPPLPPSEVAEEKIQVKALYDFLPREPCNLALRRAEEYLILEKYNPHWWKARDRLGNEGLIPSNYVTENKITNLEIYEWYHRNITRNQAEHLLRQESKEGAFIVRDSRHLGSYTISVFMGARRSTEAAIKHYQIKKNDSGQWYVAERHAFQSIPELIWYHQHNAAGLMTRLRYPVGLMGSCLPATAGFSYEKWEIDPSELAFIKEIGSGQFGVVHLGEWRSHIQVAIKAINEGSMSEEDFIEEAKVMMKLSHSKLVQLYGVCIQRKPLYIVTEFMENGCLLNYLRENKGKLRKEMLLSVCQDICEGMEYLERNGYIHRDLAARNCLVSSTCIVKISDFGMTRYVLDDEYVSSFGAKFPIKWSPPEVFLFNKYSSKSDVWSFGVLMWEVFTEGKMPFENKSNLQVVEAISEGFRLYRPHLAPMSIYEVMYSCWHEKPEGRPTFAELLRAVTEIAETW

[9] = target: Tyrosine-protein kinase Blk (Homo sapiens, UniProt P51451); experiment: Inhibition of BLK (unknown origin)
Homo sapiens [10] = species: Homo sapiens; experiment: Selectivity ratio of IC50 for LCK (unknown origin) to IC50 for BTK (unknown origin)
[11] = target: Tyrosine-protein kinase Srms (Homo sapiens, UniProt Q9H3Y6); experiment: Inhibition of SRMS (unknown origin)
Homo sapiens [12] = species: Homo sapiens; experiment: Selectivity ratio of IC50 for BLK (unknown origin) to IC50 for BTK (unknown origin)
Homo sapiens [13] = species: Homo sapiens; experiment: Selectivity ratio of IC50 for TEC (unknown origin) to IC50 for BTK (unknown origin)
[14] = target: Tyrosine-protein kinase BTK (Homo sapiens, UniProt Q06187); experiment: Inhibition of BTK in human PBMC assessed as reduction in anti-IgM-induced MIP1beta
[15] = Total clearance in rat plasma at 10 mg/kg; type: ADME, organism-based
Homo sapiens [16] = species: Homo sapiens; experiment: Selectivity ratio of IC50 for ERBB4 (unknown origin) to IC50 for BTK (unknown origin)
[17] = target: Tyrosine-protein kinase FRK (Homo sapiens, UniProt P42685); experiment: Inhibition of FRK (unknown origin)
[18] = target: T2, Cytoplasmic tyrosine-protein kinase BMX (Homo sapiens, UniProt P51813); experiment: Inhibition of BMX (unknown origin)
T2 sequence (P51813 whole entry): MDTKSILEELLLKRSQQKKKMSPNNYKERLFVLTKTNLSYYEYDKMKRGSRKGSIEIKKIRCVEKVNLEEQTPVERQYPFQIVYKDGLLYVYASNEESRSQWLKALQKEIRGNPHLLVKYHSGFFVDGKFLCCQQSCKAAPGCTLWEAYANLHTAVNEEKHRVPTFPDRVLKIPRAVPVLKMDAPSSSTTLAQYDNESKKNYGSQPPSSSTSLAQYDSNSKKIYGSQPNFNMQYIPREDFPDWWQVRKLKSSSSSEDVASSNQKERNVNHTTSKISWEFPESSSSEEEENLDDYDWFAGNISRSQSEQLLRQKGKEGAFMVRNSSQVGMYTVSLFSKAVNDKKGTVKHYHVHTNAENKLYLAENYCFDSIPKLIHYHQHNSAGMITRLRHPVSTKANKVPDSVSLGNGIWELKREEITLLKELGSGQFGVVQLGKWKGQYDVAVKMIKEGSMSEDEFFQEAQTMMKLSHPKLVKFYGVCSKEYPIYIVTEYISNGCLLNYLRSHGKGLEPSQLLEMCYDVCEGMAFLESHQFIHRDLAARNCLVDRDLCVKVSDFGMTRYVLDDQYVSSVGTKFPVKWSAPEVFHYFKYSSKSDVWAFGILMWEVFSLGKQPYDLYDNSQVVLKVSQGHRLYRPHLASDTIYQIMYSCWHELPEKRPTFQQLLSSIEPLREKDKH

[19] = target: Tyrosine-protein kinase Fgr (Homo sapiens, UniProt P09769); experiment: Inhibition of FGR (unknown origin)
[20] = target: T3, Tyrosine-protein kinase Tec (Homo sapiens, UniProt P42680); experiment: Inhibition of TEC (unknown origin)
T3 sequence (P42680 whole entry): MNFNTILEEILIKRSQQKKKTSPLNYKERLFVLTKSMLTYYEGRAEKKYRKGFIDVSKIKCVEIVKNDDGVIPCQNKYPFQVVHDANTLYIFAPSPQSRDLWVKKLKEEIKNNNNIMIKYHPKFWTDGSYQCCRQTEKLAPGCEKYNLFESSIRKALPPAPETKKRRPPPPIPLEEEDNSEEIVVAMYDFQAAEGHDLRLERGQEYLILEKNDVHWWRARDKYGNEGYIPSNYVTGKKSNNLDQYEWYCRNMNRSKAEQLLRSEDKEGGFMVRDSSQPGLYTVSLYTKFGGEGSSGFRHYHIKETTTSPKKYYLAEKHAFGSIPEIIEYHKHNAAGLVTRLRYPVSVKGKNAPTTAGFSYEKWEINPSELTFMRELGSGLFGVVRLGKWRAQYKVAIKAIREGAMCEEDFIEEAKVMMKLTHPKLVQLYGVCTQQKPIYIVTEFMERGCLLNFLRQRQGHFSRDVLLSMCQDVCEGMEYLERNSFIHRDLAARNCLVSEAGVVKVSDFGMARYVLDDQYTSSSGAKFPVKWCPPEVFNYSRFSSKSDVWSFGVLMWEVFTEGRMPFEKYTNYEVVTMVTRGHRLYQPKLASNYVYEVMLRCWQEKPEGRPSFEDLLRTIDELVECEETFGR

[21] = target: Receptor tyrosine-protein kinase erbB-4 (Homo sapiens, UniProt Q15303); experiment: Inhibition of ERBB4 (unknown origin)
[22] = target: Tyrosine-protein kinase Lck (Homo sapiens, UniProt P06239); experiment: Inhibition of LCK (unknown origin)
Homo sapiens [23] = species: Homo sapiens; experiment: Selectivity ratio of IC50 for FYN (unknown origin) to IC50 for BTK (unknown origin)
[24] = Total clearance in dog plasma at 2 mg/kg; type: ADME, organism-based, Canis lupus familiaris

Chain of Tyrosine-protein kinase FRK (P42685 whole entry): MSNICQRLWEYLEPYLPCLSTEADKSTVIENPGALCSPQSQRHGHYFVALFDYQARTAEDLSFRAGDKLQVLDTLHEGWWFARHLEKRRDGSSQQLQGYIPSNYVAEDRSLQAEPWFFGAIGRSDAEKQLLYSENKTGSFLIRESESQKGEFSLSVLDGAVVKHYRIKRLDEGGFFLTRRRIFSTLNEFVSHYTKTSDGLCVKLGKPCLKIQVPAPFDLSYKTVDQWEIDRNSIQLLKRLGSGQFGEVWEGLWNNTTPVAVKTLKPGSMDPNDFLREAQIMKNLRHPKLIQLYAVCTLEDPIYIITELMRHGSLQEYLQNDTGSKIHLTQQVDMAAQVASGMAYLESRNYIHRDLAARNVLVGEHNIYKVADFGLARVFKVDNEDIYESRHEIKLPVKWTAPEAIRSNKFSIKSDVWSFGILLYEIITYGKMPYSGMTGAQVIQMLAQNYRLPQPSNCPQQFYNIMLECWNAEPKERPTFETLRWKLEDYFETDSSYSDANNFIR
Chain of Tyrosine-protein kinase Lyn (P07948 whole entry): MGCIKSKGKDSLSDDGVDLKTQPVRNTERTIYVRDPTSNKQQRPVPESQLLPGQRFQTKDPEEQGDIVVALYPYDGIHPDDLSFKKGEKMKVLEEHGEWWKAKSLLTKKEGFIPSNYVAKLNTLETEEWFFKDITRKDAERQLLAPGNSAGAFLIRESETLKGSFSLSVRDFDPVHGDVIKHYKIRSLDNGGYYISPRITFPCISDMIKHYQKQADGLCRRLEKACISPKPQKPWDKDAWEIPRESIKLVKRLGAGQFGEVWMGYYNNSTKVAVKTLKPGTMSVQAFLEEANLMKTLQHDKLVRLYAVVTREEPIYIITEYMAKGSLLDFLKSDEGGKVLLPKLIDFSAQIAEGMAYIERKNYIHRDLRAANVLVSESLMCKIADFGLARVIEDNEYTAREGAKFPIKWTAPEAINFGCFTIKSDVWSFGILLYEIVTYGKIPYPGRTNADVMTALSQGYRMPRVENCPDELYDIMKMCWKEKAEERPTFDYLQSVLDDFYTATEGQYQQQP
Chain of Voltage-gated inwardly rectifying potassium channel KCNH2 (Q12809 whole entry): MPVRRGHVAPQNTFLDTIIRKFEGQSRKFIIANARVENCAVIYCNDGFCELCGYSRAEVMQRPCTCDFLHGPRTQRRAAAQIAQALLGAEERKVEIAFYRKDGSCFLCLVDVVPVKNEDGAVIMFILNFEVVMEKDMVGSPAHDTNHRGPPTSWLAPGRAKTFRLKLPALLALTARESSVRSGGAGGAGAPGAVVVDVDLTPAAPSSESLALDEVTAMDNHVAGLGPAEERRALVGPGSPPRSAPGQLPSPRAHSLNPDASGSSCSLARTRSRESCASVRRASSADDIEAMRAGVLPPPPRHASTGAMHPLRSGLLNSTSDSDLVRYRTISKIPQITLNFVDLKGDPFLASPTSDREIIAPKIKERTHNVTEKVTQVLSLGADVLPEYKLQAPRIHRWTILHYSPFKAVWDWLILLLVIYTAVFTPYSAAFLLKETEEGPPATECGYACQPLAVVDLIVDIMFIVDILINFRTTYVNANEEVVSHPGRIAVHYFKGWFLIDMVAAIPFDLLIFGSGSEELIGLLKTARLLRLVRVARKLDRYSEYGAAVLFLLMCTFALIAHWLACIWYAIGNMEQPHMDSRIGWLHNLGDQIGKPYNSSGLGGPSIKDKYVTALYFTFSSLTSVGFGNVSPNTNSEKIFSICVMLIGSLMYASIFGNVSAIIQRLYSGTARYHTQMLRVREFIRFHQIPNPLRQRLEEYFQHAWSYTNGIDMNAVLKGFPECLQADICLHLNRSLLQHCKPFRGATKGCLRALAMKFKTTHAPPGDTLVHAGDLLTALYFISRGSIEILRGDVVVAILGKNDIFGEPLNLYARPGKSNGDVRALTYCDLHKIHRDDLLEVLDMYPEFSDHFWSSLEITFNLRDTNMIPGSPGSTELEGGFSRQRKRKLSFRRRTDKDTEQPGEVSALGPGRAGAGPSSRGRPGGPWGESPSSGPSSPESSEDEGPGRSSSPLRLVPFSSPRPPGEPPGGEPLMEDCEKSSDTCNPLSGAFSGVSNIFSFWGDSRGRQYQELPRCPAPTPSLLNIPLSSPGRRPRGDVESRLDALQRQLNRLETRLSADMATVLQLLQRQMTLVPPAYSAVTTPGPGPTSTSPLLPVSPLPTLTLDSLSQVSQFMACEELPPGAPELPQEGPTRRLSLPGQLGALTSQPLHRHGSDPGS
Chain of Tyrosine-protein kinase Lck (P06239 whole entry): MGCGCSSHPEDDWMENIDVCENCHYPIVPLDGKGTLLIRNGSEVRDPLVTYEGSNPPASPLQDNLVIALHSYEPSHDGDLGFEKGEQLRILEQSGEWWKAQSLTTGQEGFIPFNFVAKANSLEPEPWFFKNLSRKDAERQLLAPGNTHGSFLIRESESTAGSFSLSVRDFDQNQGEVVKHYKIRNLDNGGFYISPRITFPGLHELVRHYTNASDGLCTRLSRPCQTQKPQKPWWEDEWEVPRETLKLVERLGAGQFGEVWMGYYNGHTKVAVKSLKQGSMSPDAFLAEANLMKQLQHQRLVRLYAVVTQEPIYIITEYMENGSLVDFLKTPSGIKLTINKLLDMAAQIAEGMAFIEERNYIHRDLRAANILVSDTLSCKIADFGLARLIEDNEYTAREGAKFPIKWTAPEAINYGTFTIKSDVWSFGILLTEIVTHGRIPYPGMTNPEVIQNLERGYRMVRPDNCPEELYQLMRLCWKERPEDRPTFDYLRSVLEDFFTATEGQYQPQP
Chain of Tyrosine-protein kinase Srms (Q9H3Y6 whole entry): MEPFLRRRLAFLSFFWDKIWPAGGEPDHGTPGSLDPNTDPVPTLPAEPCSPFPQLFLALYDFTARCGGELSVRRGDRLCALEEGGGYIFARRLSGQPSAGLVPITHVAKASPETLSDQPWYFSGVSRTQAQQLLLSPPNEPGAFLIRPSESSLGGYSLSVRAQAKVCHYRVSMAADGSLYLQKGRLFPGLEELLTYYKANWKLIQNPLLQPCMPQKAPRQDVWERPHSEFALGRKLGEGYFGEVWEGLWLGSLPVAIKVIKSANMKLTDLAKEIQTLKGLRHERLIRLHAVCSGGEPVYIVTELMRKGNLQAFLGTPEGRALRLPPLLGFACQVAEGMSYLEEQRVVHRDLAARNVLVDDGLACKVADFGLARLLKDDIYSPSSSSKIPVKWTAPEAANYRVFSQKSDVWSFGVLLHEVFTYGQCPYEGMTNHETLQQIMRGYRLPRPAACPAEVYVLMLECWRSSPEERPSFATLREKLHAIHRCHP
Chain of Receptor tyrosine-protein kinase erbB-4 (Q15303 whole entry): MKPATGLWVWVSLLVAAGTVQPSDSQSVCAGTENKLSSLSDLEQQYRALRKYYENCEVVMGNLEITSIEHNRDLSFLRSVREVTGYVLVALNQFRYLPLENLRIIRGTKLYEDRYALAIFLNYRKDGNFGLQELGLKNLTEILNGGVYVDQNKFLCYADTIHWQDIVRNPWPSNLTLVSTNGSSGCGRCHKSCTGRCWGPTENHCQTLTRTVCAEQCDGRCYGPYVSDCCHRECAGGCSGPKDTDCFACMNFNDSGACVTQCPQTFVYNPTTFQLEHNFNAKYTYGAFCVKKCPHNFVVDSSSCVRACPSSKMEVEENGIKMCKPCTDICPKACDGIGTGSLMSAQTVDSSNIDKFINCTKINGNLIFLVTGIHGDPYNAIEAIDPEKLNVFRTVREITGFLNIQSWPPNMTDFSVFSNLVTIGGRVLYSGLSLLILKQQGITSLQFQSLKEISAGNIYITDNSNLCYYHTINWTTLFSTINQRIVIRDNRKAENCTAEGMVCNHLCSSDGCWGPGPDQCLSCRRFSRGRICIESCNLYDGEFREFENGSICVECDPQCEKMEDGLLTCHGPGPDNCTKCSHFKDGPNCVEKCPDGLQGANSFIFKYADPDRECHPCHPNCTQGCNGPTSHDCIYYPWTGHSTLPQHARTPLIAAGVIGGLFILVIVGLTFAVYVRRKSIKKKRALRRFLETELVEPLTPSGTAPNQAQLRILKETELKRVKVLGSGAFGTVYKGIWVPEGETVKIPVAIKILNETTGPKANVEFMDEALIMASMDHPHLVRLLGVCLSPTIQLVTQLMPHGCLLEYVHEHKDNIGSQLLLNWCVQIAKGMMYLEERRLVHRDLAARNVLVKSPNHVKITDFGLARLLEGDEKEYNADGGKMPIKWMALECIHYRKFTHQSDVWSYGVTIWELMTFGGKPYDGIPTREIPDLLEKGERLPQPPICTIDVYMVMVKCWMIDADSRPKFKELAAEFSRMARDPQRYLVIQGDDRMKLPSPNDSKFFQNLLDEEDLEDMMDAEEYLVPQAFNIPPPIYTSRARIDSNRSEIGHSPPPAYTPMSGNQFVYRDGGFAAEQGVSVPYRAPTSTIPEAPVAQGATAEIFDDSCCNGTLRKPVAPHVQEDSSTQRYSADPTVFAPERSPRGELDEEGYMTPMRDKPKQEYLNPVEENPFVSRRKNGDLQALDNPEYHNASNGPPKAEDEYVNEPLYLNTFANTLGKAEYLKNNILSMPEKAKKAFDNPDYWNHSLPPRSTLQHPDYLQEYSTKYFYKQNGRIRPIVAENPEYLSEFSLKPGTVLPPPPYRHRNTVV
Chain of Tyrosine-protein kinase Fgr (P09769 whole entry): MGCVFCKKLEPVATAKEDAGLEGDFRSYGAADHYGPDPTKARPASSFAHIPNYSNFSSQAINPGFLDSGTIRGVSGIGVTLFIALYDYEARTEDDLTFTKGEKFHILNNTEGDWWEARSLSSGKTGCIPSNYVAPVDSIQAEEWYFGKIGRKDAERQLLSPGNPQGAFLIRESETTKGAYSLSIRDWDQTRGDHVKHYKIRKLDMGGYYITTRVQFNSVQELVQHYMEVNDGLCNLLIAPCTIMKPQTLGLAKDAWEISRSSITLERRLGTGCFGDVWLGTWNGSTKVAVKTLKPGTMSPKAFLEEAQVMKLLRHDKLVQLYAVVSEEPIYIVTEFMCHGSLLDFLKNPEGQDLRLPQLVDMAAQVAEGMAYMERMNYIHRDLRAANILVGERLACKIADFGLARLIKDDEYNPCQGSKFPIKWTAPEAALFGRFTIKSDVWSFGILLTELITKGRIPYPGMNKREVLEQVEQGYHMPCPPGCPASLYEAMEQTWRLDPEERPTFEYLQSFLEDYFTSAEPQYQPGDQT

With `CC(C)C(=O)N1CCO[C@@H](c2nc(-c3ccc(C(=O)Nc4cc(C(F)(F)F)ccn4)cc3F)c3c(N)nccn23)C1` the Ratio IC50 (Homo sapiens [1]) was 1600, the Ratio IC50 (Homo sapiens [2]) was 4880 and the Ratio IC50 (Homo sapiens [3]) was 393. The IC50 [4] was 1050 nM, the IC50 [5] was 2150 nM and the Ratio IC50 (Homo sapiens [6]) was 1060. For the same molecule, the IC50 [7] was 15000 nM, the IC50 [8] was 464 nM and the IC50 [9] was 280 nM. The Ratio IC50 (Homo sapiens [10]) was 227, the IC50 [11] was 103 nM and the Ratio IC50 (Homo sapiens [12]) was 636. For the same molecule, the Ratio IC50 (Homo sapiens [13]) was 973, the IC50 [14] was 26 nM and the clearance [15] was 1.4 mL/min/kg. For the same molecule, the Ratio IC50 (Homo sapiens [16]) was 1170, the IC50 [17] was 706 nM and the IC50 [18] was 703 nM. It also gave an IC50 [19] of 268 nM, an IC50 [20] of 428 nM and an IC50 [21] of 514 nM. For the same molecule, the IC50 [22] was 100 nM, the Ratio IC50 (Homo sapiens [23]) was 4330 and the clearance [24] was 4.8 mL/min/kg.
